From patent US7256205B2, “Nitrosated and nitrosylated H2 receptor antagonist compounds, compositions and methods of use” (NitroMed, Inc., priority 1998, dated 2007)
Entries after “also recorded” stand apart in the source; their conditions may differ.

System: gastric lesions produced by the ethanol/HCl mixture
Test: ethanol/HCl mixture-induced gastric lesion test in rats
Type: in vivo, Male Sprague Dawley rats
Details: oral gavage 30 min before 60% ethanol in 150 mM HCl, lesions scored 60 min after
Protocol: The ethanol/HCl mixture-induced gastric lesion test in rats described by Takeuchi et al, J. Pharmacol. Exp. Ther., 286: 115-121 (1998), was used to evaluate the gastric lesion activity. Male Sprague Dawley rats (Charles River Laboratories, Wilmington, Mass.) weighing 230-250 g were used for the experiments. The rats were housed with laboratory chow and water ad libitum prior to the study. The rats were fasted for 24 hours with free access to water and then dosed by oral gavage with vehicle or with the test compounds given at a volume of 0.5 ml/100 g body weight. Thirty minutes after oral dosing all the rats received 1 ml of a solution of 60% ethanol in 150 mM HCl intragastrically. Food was withheld after dosing. Sixty minutes after ethanol/HCl, rats were euthanized by pre-charged CO2. The stomachs were dissected along the greater curvature, washed with a directed stream of 0.9% saline and pinned open on a sylgard based petri dish for examination of the hemorrhagic lesions. Gastric lesion score was expressed in mm and calculated by summing the length of each lesion as described by Al-Ghamdi et al, J. Int. Med. Res., 19: 2242 (1991). Results are expressed as the mean±standard error of the mean. Statistical analysis were conducted using ANOVA test followed by a Student-Newman-Keuls post-hoc test using the Abacus Concepts, Super Anova computer program (Abacus Concepts, Inc., Berkeley, Calif.).

SMILES | inhibition of the formation of gastric lesions (gastric lesion score) relative to vehicle alone (160 μmol/kg) | inhibition of the formation of gastric lesions (gastric lesion score) relative to vehicle alone (320 μmol/kg)
CN/C(=N/CCSCc1nc[nH]c1C)NC#N [Cimetidine, reference compound] | failed to significantly inhibit the formation of gastric lesions; also recorded: did not significantly inhibit the formation of gastric lesions | failed to significantly inhibit the formation of gastric lesions; also recorded: did not significantly inhibit the formation of gastric lesions
CNC(=NCCSCc1ncn(C(=O)CC2(SN=O)C3CC4CC(C3)CC2C4)c1C)NC#N (stereo not shown) [Example 1, (2Z)-2-aza-3-(methylamino)-3-((2-((5-methyl-1-(2-(2-(nitrosothio)adamantan-2-yl)acetyl)imidazol-4-yl)methylthio)ethyl)amino)prop-2-enenitrile] | significantly inhibited the formation of gastric lesions | significantly inhibited the formation of gastric lesions
